Measurements as given in patent publication US7285687B2 (priority 2002, dated 2007).

Assays:
CB1 receptor = target: T1, CB1 receptor (Rattus norvegicus, UniProt P20272); experiment: CB1 binding procedure, displacement of [3H]CP 55,940 from rat whole-brain P2 membranes; conditions: Table 6; read-out: CB1 KI
T1 construct: whole brain was homogenized and centrifuged; from tissue; host or cells: whole brain of male Sprague-Dawley rats, P2 membrane fraction
Procedure: (§1) Male ICR mice (25-32 g), obtained from Harlan (Dublin, Va.), were housed in groups of five. All animals were kept in a temperature-controlled (20-22° C.) environment with a 12-hour light-dark cycle (lights on at 7 a.m.). Separate mice were used for testing each drug dose in the in vivo behavioral procedures. Brain tissue for binding studies was obtained from male Sprague-Dawley rats (150-200 g) purchased from Harlan Laboratories (Dublin, Va.).
The methods used for tissue preparation and binding have been described previously (Compton et al., 1993) and are similar to those described by Devane et al. (1988). All assays, as described briefly below, were performed in triplicate, and the results represent the combined data from three to six individual experiments.
Following decapitation and rapid removal of the brain, whole brain was homogenized and centrifuged. The resulting pellet was termed P1. The supernatant was saved and combined with the two subsequent supernatants obtained from washing of the P1 pellet. The combined supernatant fractions were centrifuged, resulting in the P2 pellet. After further incubation and centrifuging, this pellet was resuspended in assay buffer to a protein concentration of approximately 2 mg/ml. The membrane preparation was quickly frozen in a bath solution of dry ice and 2-methylbutane (Sigma Chemical Co., St. Louis, Mo.), then stored at −80° C. for no more than 2 weeks. Prior to performing a binding assay an aliquot of frozen membrane was rapidly thawed and protein values determined by the method of Bradford (1976).
Binding was initiated by the addition of 150•g of P2 membrane to test tubes containing 1 nM of [^3H] CP 55,940 (79 Ci/mmol) and a sufficient quantity of buffer to bring the total incubation volume to 1 ml. […] Following incubation at 30° C. for 1 hr, binding was terminated by addition of ice cold buffer and vacuum filtration through pretreated filters in a 12-well sampling manifold (Millipore, Bedford, Mass.). After washing, filters were placed into plastic scintillation vials (Packard, Downer Grove, Ill.) and shaken. The quantity of radioactivity present was determined by liquid scintillation spectrometry.
(§2) In addition, multiple linear regression was used to calculate the overall degree of relationship between CB1 binding affinity and potency in the mouse measures for all active cannabinoids. […] Ki values for CB1 and CB2 binding were obtained from Scatchard displacement analysis as determined via EBDA program of the KELL software package (Biosoft, Milltown, N.J.).

male ICR mice [1] = experiment: Change in rectal temperature (RT) in mice, i.v.; format: in vivo, mouse; conditions: for R.T. effect at dose: @ 30 mg/kg
Procedure: as §1
(§3) Measurement of spontaneous activity in mice occurred in standard activity chambers interfaced with a Digiscan Animal Activity Monitor (Omnitech Electronics, Inc., Columbus, Ohio). A standard tail-flick apparatus and a digital thermometer (Fisher Scientific, Pittsburgh, Pa.) were used to measure antinociception and rectal temperature, respectively.
(§4) Resorcinols were synthesized in our labs (Organix, Inc., Woburn, Mass.) according to the procedure specified below and were suspended in a vehicle of absolute ethanol, Emulphor-620 (Rhone-Poulenc, Inc., Princeton, N.J.), and saline in a ratio of 1:1:18. Drugs were administered to the mice intravenously (i.v.) in the tail vein at a volume of 0.1 ml/10 g.
(§5) Prior to testing in the behavioral procedures, mice were acclimated to the experimental setting (ambient temperature 22-24° C.) overnight. Pre-injection control values were determined for rectal temperature and tail-flick latency (in sec). Five min after i.v. injection with drug or vehicle, mice were placed in individual activity chambers and spontaneous activity was measured for 10 min. […] Tail-flick latency was measured at 20 min post-injection. Maximum latency of 10 sec was used. Antinociception was calculated as percent of maximum possible effect {% MPE=[(test−control latency)/(10-control)]×100}. Control latencies typically ranged from 1.5 to 4.0 sec. At 30 min post-injection, rectal temperature was measured. This value was expressed as the difference between control temperature (before injection) and temperatures following drug administration (° C.). Different mice (n=5-6 per dose) were tested for each dose of each compound. Each mouse was tested in each of the 3 procedures.
(§6) Based on data obtained from numerous previous studies with cannabinoids, maximal cannabinoid effects in each procedure were estimated as follows: 90% inhibition of spontaneous activity, 100% MPE in the tail flick procedure, and −6° C. change in rectal temperature. ED50's were defined as the dose at which half maximal effect occurred. For drugs that produced one or more cannabinoid effect, ED50's were calculated separately using least-squares linear regression on the linear part of the dose-effect curve for each measure in the mouse tetrad, plotted against log10 transformation of the dose. For the purposes of potency comparison, potencies were expressed as μmol/kg.

male ICR mice [2] = experiment: Tail-flick antinociception (TF, % MPE) in mice, i.v.; format: in vivo, mouse; conditions: @ 30 mg/kg; for inhibition in vivo at 30 mg/kg: Mus musculus, iv, Table 6, read-out: T.F. % effect at dose
Procedure: as §1, §3, §4, §5, §6

CB2 receptor = target: T2, CB2 receptor (Homo sapiens, UniProt P34972); experiment: CB2 binding procedure, displacement of [3H]CP-55,940 from membranes of transfected CHO cells; conditions: for Ki: Table 6, read-out: CB2 KI; for CB1/CB2: ratio of CB1 Ki to CB2 Ki
T2 construct: expressed in transfected cells
Procedure: Membranes for CB2 binding were obtained from CHO cells. The transfected cell line was maintained in Dublecco's Modified Eagle Medium (Gibco BRL, Grand Island, N.Y.) with 10% fetal clone II (HyClone Laboratories, Inc., Logan, Utah) plus 0.3 to 0.5 mg/ml G418 (to maintain selective pressure) under 5% CO2 at 37% C. Cells were harvested with 1 mM EDTA in phosphate-buffered saline and were centrifuged at 1000×g for 5 min at 4% C. The supernatant was saved and the P1 pellet was resuspended in centrifugation buffer. Homogenization and centrifugation were repeated twice and the combined supernatant fractions were centrifuged at 40,000×g for 30 min at 4% C. The P2 pellet was resuspended in centrifugation buffer 2 (Tris HCl, 50 mM; EDTA, 1 mM; and MgCl2, 3 mM, pH 7.4) to a protein concentration of approximately 2 mg/ml. Protein concentrations were determined by the method of Bradford (1976) using Bio-Rad Protein Assay (Bio-Rad, Richmond, Calif.) and BSA standards (fatty acid free, Sigma Chemical Co., St. Louis, Mo.). The membrane preparation was divided into amounts convenient for binding assays and frozen rapidly in dry ice and stored at −80% C.
Binding was initiated by the addition of 50•g of quickly thawed P2 membranes to test tubes containing [^3H]CP-55,940 (final reaction concentration 0.5 nM), an appropriate concentration of unlabeled CP-55,940 or test drug, and sufficient quantity of assay buffer (50 mM Tris-HCl, 1 mM EDTA, 3 mM MgCl2, 5 mg/ml bovine serum albumin, pH 7.4) to bring the total incubation volume to 0.5 ml. Concentration of [^3H]CP-55,940 in saturation studies ranged from 50 to 10,000 pM. […] CP-55,940 and all cannabinoid analogs were-prepared by suspension in assay buffer from a 1 mg/ml ethanolic stock without evaporation of the ethanol (final concentration of no more than 0.4%). In competition studies, analog concentrations ranged from 0.1 nM to 10•M. After incubation at […] for 1 hr, binding was terminated by the addition of 2 ml of ice-cold wash buffer (50 mM Tris-HCl and 1 mg/ml BSA) and vacuum filtration through pre-treated filters in a 12-well sampling manifold (Millipore, Bedford, Mass.). Reaction vessels were washed once with 2 ml of ice-cold wash buffer. Filters were placed into 7-ml plastic scintillation vials (RPI Corp., Mount Prospect, Ill.) with 4 ml of Budget-Solve (RPI Corp.). After shaking for 30 min, the radioactivity present was determined by liquid scintillation spectrometry. Three reaction vessels were used for each drug concentration in each assay. The results represent the combined data of three independent experiments. All assays were performed in siliconized test tubes, which were prepared by air drying (12 hr) inverted borosilicate tubes after two rinses with a 0.1% solution of AquaSil (Pierce, Rockford, Ill.). The GF/C glass-fiber filters (2.4 cm, Baxter, McGaw Park, Ill.) were pre-treated in a 0.1% solution of pH 7.4 polyethylenimine (Sigma Chemical Co.) for at least 6 hr.
as §2

male ICR mice [3] = experiment: Suppression of spontaneous activity (SA) in mice, i.v.; format: in vivo, mouse; conditions: @ 30 mg/kg, Table 6
Procedure: as §1, §3, §4, §5, §6

T2 sequence (P34972 whole entry): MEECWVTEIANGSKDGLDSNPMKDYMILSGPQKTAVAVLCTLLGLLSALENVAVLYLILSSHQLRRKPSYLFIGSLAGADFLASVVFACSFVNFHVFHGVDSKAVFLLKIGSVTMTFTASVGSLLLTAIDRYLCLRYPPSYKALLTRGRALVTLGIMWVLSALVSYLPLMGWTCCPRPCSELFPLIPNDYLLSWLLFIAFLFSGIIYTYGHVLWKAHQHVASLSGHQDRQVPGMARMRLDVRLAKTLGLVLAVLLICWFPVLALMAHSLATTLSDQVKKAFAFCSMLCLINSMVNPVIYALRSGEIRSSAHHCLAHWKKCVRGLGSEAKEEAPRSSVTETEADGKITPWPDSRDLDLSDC
T1 sequence (P20272 whole entry): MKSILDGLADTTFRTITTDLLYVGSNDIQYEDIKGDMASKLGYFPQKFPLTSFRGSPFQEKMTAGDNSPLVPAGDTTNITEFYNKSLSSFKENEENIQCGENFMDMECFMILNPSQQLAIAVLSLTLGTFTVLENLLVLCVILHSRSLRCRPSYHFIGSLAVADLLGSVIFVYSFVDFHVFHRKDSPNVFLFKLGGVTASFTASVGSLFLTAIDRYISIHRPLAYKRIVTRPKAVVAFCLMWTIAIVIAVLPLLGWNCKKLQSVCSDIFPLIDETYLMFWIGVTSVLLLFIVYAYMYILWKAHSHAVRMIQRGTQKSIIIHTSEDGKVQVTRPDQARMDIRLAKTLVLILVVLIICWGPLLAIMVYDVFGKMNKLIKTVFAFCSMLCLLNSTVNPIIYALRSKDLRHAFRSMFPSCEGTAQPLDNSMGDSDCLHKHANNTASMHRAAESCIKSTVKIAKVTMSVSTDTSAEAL

Row | Structure (SMILES) | Ki (CB1 receptor) [µM] | inhibition in vivo at 30 mg/kg (male ICR mice [2]) [%] | Ki (CB2 receptor) [µM] | R.T. effect at dose (male ICR mice [1]; Table 6, 30 mg/kg) | CB1/CB2 (CB2 receptor) | also measured
1 | C=C(C)[C@@H]1CCC(C)=CC1c1c(C)cc(O)cc1O (single isomer, unassigned; (-)) [O-1602] | > 10 | 0 | > 10 |  |  | R.T. effect at dose (male ICR mice [1]; Table 6): 0.3 @ 30 °C
2 | C=C(C)[C@@H]1CCC(C)=CC1c1c(O)cc(C)cc1O (single isomer, unassigned; (-)) [O-1821, (-)-2-(3-3,4-trans-p-menthadien-(1,8)-yl)-orcinol] | > 10 | 3 |  |  |  | S.A. % effect at dose (male ICR mice [3]): 0 @ 30%
3 | CCCCCCC(C)(C)c1cc(OC)c(C2(O)CCCC(C)C2)c(OC)c1 (single isomer, unassigned; isomer 1) [O-1966A, 1-[4-(1,1-Dimethyl-heptyl)-2,6-dimethoxy-phenyl]-3-methyl-cyclohexanol isomer 1] |  |  |  | 0.5 @ 30 °C | 220 | 
4 | CCCCCCC(C)(C)c1cc(OC)c(C2(O)CCCC(C)C2)c(OC)c1 (single isomer, unassigned; isomer 2) [O-1967B, 1-[4-(1,1-Dimethyl-heptyl)-2,6-dimethoxy-phenyl]-3-methyl-cyclohexanol isomer 2] |  |  |  | 0 @ 30 °C | 15 | T.F. % effect at dose (male ICR mice [2]; Table 6, 30 mg/kg): 8.2% @30
5 | CCCCCCC(C)(C)c1ccc(-c2cc(C)ccc2C(C)C)c(O)c1 [O-1376, 3-1′,1′-Dimethylhepty-6-(2-isopropyl-5-methylphenyl)phenol] |  |  | 0.00263 ± 0.00036 |  | 11 | ED50 (male ICR mice [1]; Mus musculus, iv, 95% confidence limits in parentheses, read-out: ED50 RT (rectal temperature)): 23 µmol/kg
